Entries after “also recorded” stand apart in the source; their conditions may differ. Non-standard residues stand in square brackets, D forms with d. Residues, ends and D or L forms follow the SMILES beside them. *: point of attachment. Phenylacetyl(2,3,4,5,6-F5) = O=C(Cc1c(F)c(F)c(F)c(F)c1F)*; Phe(F5) = N[C@@H](Cc1c(F)c(F)c(F)c(F)c1F)C(=O)O; hArg = N=C(N)NCCCC[C@H](N)C(=O)O; 12Ado = NCCCCCCCCCCCC(=O)O; Nle = CCCC[C@H](N)C(=O)O; Orn = NCCC[C@H](N)C(=O)O; Abu = CC[C@H](N)C(=O)O; PhAc = O=C(Cc1ccccc1)*
Assays:
[1] = test system: J82 urothelial cancer cells; experiment: In vitro cell viability, J82; assay type: cell-based, human; conditions: antagonist 5 μM for 72 h, cell proliferation assay; MIA602 = 1
Method: (§1) The inhibitory effects of the various synthesized GHRH antagonists were tested in cell proliferation assays in various human cancer cell lines including stomach cancer (KATOIII, N87), colon cancer (HT-29), urothelial cancer (J82, RT4), pancreatic cancer (PANC-1, CFPAC-1), prostatic cancer (PC3), breast cancer (MX-1, HCC1806), ovarian cancer (SK-OV-3, OVCAR-3) and lung cancer (HCC827, H460).
(§2) Cell culture. Human cancer cell lines including pancreatic (PANC-1 and CFPAC-1), lung (HCC827 and H460), stomach (NCI-N87 and KATOIII), urothelial (J82, RT4), prostatic (PC3), breast (MX-1 and HCC 1806), colorectal (HT-29), and ovarian (SK-OV-3 and OVCAR-3) were obtained from the American Type Culture Collection (ATCC) and cultured at 37° C. in a humidified 95% air/5% CO2 atmosphere in the medium recommended by ATCC.
(§3) In vitro cell viability. Cell viability was analyzed as follows: cancer cells including pancreatic (PANC-1 and CFPAC-1), lung (HCC827 and H460), stomach (NCI-N87 and KATOIII), urothelial (J82, RT4), prostatic (PC3) and breast (MX-1 and HCC 1806), colorectal (HT-29) and ovarian (SK-OV-3 and OVCAR-3) were grown on 96 well plates to ˜60% confluence, the cells were starved for 24 h in culture medium containing 0.5% FBS. Cells were then treated with GHRH antagonists MIA602 AVR compounds at concentrations of 1, 2.5 or 5 μM, or vehicle (0.1% DMSO) in quintuplicates for 72 hours. The medium was replaced every 48 hours. Cell viability was measured using CellTiter 96 aqueous one solution kit (Promega). Inhibitory effects of tested AVR compounds in comparison to that of MIA602 are presented as inhibitory potency.
(§4) Inhibitory effects of selected AVR compounds in comparison to that of MIA602 are presented as inhibitory potency (e.g., percentage of inhibition). […] The cell lines tested including lung cancer HCC827 (FIG. 2A), pancreatic cancer CFPAC-1 (FIG. 2B), stomach cancer N87 (FIG. 2C), colon cancer HT-29 (FIG. 2D), breast cancers MX-1 and HCC1806 (FIGS. 2 E, F). Based on the results of cell proliferation assay after cancer cells were treated with antagonist at concentration of 5 μM for 72H, the relative inhibitory potency of AVR antagonists in comparison to MIA-602 is summarized in Table 3 A and B. Over 60 AVR compounds were tested in 12 cancer cell lines.

[2] = test system: KATOIII stomach cancer cells; experiment: In vitro cell viability, KATOIII; assay type: cell-based, human; conditions: antagonist 5 μM for 72 h, cell proliferation assay; MIA602 = 1
Procedure, shortened: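 Cells grown to ~60% confluence, serum-starved 24 h in 0.5% FBS, then treated with antagonists at 1, 2.5 or 5 μM or vehicle (0.1% DMSO) in quintuplicate for 72 h, medium replaced every 48 h. Viability read by MTS-type CellTiter 96 AQueous One assay; expressed as inhibitory potency relative to MIA602.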

[3] = test system: bleomycin-induced lung fibrosis (lung hydroxyproline content); experiment: Bleomycin mouse model, lung hydroxyproline assay; assay type: in vivo, C57Bl/6J mice; conditions: bleomycin IP
Method: Abstract. Purpose. Growth hormone-releasing hormone (GHRH) is a 44-amino acid peptide that regulates growth hormone (GH) secretion. It was tested whether a GHRH receptor (GHRH-R) antagonist, MIA-602, would inhibit bleomycin-induced lung inflammation and/or fibrosis in C57Bl/6J mice. Methods. It was tested whether MIA-602 (5 μg or vehicle given subcutaneously [SC] on days 1-21) would decrease lung inflammation (at day 14) and/or fibrosis (at day 28) in mice treated with intraperitoneal (IP) bleomycin (0.8 units on days 1, 3, 7, 10, 14 and 21). […] Results. Inflammation (histopathologic scores assessed blindly) was less evident in mice treated with MIA-602 for 14 days. […] GHRH-R antagonist increased basal and maximal oxygen consumption of cultured lung fibroblasts. […] Conclusions. MIA-602 reduced lung inflammation and fibrosis due to bleomycin.
Experimental animals. 8-week old C57Bl/6J male mice (The Jackson Laboratory, Bar Harbor, Me.) were used in these experiments. Mice weighed about 26 grams at the start. Mice were randomly allocated to the experimental groups and housed in identical filter top cages in a ventilated rack. Mice were exposed to a 12-hour light/dark cycle and had free access to standard laboratory chow and water. […]
Hydroxyproline assay. […] Hydroxyproline was measured colorimetrically (560 nm) after hydrolysis using an assay kit (MAK008, Sigma-Aldrich, St. Louis, Mo.). […]

[4] = test system: PANC-1 pancreatic cancer cells; experiment: In vitro cell viability, PANC-1; assay type: cell-based, human; conditions: antagonist 5 μM for 72 h, cell proliferation assay; MIA602 = 1
Method: as §1, §2, §3, §4

SMILES | relative inhibitory potency in comparison to MIA-602, Urothelial J82 [1] | relative inhibitory potency in comparison to MIA-602, Stomach KATOIII [2] | lung hydroxyproline (HP) content, change (in words) ([3]; 14 days, MIA-602 5 μg/day sc) | lung hydroxyproline (HP) content, change (in words) ([3]; 28 days, MIA-602 5 μg/day sc days 1-21, right lung) | relative inhibitory potency in comparison to MIA-602, Pancreatic Panc-1 [4]
CCCC[C@H](NC(=O)[C@@H](NC(=O)[C@H](CC(=O)O)NC(=O)[C@H](CCC(N)=O)NC(=O)[C@H](CC(C)C)NC(=O)[C@H](CC(C)C)NC(=O)[C@H](CCCN)NC(=O)[C@H](Cc1c[nH]cn1)NC(=O)[C@H](C)NC(=O)[C@H](CO)NC(=O)[C@H](CC(C)C)NC(=O)[C@H](CCC(N)=O)NC(=O)[C@H](CC)NC(=O)[C@H](CC(C)C)NC(=O)[C@@H](NC(=O)[C@H](CCCN)NC(=O)[C@H](Cc1c[nH]cn1)NC(=O)[C@H](Cc1ccc(OC)cc1)NC(=O)[C@H](CCCCNC(=N)N)NC(=O)[C@H](C)NC(=O)[C@@H](NC(=O)[C@H](Cc1c(F)c(F)c(F)c(F)c1F)NC(=O)[C@@H](NC(=O)[C@H](C)NC(=O)[C@H](CC(=O)O)NC(=O)[C@@H](CCCNC(=N)N)NC(=O)[C@H](Cc1ccc(O)cc1)NC(=O)CCCCCCCCCCCNC(=O)Cc1ccccc1)[C@@H](C)CC)[C@@H](C)O)C(C)C)[C@@H](C)CC)C(=O)N[C@H](CCCNC(=N)N)C(=O)N[C@@H](CCCCNC(=N)N)C(N)=O [MIA-602, PhAC-Ada, Tyr D-Arg, Asp, Ala, Ile, 5FPhe, Thr, Ala, Har, Tyr(Me), His, Orn, Val, Leu, Abu, Gin, Leu, Ser, Ala, His, Om, Leu, Leu, Gin, Asp, Ile; Nle, D-Arg, Har NH2, reference compound] ({PhAc-12Ado}-Y[dR]DAI[Phe(F5)]TA[hArg]Y(Me)H[Orn]VL[Abu]QLSAH[Orn]LLQDI[Nle][dR][hArg]-NH2) | 1 | 1 | did not increase significantly | increased significantly in bleomycin-treated mice that received vehicle, but not in bleomycin-treated mice that received MIA-602; also recorded: No significant increase in HP content | 1
CCCC[C@H](NC(=O)[C@@H](NC(=O)[C@H](CC(=O)O)NC(=O)[C@H](CCC(N)=O)NC(=O)[C@H](CC(C)C)NC(=O)[C@H](CC(C)C)NC(=O)[C@H](CCCCN)NC(=O)[C@H](CCCNC(=N)N)NC(=O)[C@H](C)NC(=O)[C@H](CO)NC(=O)[C@H](CC(C)C)NC(=O)[C@H](CCC(N)=O)NC(=O)[C@H](CC)NC(=O)[C@H](CC(C)C)NC(=O)[C@@H](NC(=O)[C@H](CCCCN)NC(=O)[C@H](CCCNC(=N)N)NC(=O)[C@H](Cc1ccc(OC)cc1)NC(=O)[C@H](CCCCNC(=N)N)NC(=O)[C@H](C)NC(=O)[C@@H](NC(=O)[C@H](Cc1c(F)c(F)c(F)c(F)c1F)NC(=O)[C@@H](NC(=O)[C@H](C)NC(=O)[C@H](CC(=O)O)NC(=O)[C@@H](CCCNC(=N)N)NC(=O)[C@H](Cc1ccc(O)cc1)NC(=O)CCCCCCCCCCCNC(=O)Cc1c(F)c(F)c(F)c(F)c1F)[C@@H](C)CC)[C@@H](C)O)C(C)C)[C@@H](C)CC)C(=O)N[C@H](CCCNC(=N)N)C(=O)N[C@@H](CCCCNC(=N)N)C(=O)NC [AVR-235] ({Phenylacetyl(2,3,4,5,6-F5)-12Ado}-Y[dR]DAI[Phe(F5)]TA[hArg]Y(Me)RKVL[Abu]QLSARKLLQDI[Nle][dR][hArg]-NHMe) | 1.518 | 1.220 | – | – | 1.139
